Test results reported in patent US9714288B2, “Antisense compounds and uses thereof” (The Regents of the University of California, priority 2014, dated 2017).
Values after ≈ are worked out from the molar mass of the structure shown. Oligonucleotides are written 5' to 3', each unit as a sugar letter and its base; * is a phosphorothioate linkage, no mark a phosphodiester; rarer units and linkages stand in square brackets, end groups in braces. Plain capitals give the bases only. k = constrained ethyl (cEt); [5mC] = 5-methylcytosine; d = 2'-deoxy (DNA)

Tests used:
MXD3 mRNA = MXD3 mRNA levels in K-562 cells by quantitative real-time PCR; type: cell-based, human; conditions: for MXD3 mRNA at 10 μM oligonucleotide (% control): K-562 cells electroporated with 10 μM, ~24 hours, relative to untreated control; for IC50: K-562 cells, MXD3 mRNA, 0-35.0 μM, approximate values
Source text: Several hundred antisense oligonucleotides that target human MAX Dimerization Protein 3 (MXD3), GENBANK accession number NT_023133.13 truncated 21540000 to 21577000, SEQ ID NO: 1, were synthesized using standard solid phase oligonucleotide synthetic methods. They are chimeric oligonucleotides (“gapmers”) 16 nucleotides in length, composed of a central “gap” region consisting of 10 2′-deoxynucleotides, which is flanked on both sides (5′ and 3′) by three-nucleotide “wings”. The wings are composed of 4′-CH(CH3)—O-2′ modified nucleotides, also known as constrained ethyl or (S)-cEt nucleotides. The internucleoside (backbone) linkages are phosphorothioate throughout the oligonucleotides. All cytosine residues are 5-methylcytosines. The sequences of selected MXD3 targeting antisense oligonucleotides and their start and stop sites along GENBANK accession number NT_023133.13 truncated 21540000 to 21577000 are shown in Table 1 below.
The antisense oligonucleotides were analyzed for their effects on target mRNA levels. K-562 cells were plated at a density of 50,000 cells per well in 96-well plates and were electroporated with 10 μM oligonucleotide or with no oligonucleotide for untreated controls. After approximately 24 hours, RNA was isolated from the cells, and MXD3 mRNA levels were measured by quantitative real-time PCR using primer probe set RTS4263 (forward: 5′-[…]-3′, SEQ ID NO: 2; reverse: 5′-TGGCCAAGGGTTCCATGT-3′, SEQ ID NO: 3; probe: 5′-CTGCAGCCGCTTGCTCCGG-3′, SEQ ID NO: 4). MXD3 mRNA levels were adjusted according to total RNA content, as measured by RIBOGREEN®. Results for selected oligonucleotides are presented as average percent MXD3 mRNA level, relative to untreated control cells, in Table 1.
A subset of the MXD3 targeting antisense oligonucleotides were selected for dose response analysis in K-562 cells. Cells were electroporated with 0, 2.19, 8.75, or 35.0 μM antisense oligonucleotide and analyzed as described above. Results for selected oligonucleotides are presented as approximate IC50 values in Table 1.

[1] = Tolerability of antisense oligonucleotides in BALB/c mice; type: in vivo; conditions: 50 mg/kg s.c. twice per week for three weeks, #1 most favorable, #13 least favorable
Method: Selected antisense oligonucleotides were then tested for tolerability in vivo. Six week old, male BALB/c mice were injected subcutaneously twice per week for three weeks with 50 mg/kg of an antisense oligonucleotide listed in Table 1 or with PBS. Each treatment group consisted of 4 animals. Two days following the final oligonucleotide administration, the mice were sacrificed and plasma transaminase levels, body weights, and organ weights were evaluated relative to the PBS treated group. Isis numbers 632417, 632461, and 632640 had the most favorable tolerability rankings and were selected as leads. Isis No. 632461 targets human, mouse, and monkey MXD3 sequences with no mismatches and was chosen for use in further studies.

Reh cells = experiment: Reh cell growth, number of live cells (MTT assay); type: cell-based, human; conditions: for IC50: Homo sapiens, experimentally determined, Reh cells; for Average number of live cells × 10^3: Table 9, Reh cells, conjugate 2 μM oligonucleotide, Doxorubicin 2.56 ng/mL, Vincristine 1.18 ng/mL

Compound | MXD3 mRNA at 10 μM oligonucleotide (% control) (MXD3 mRNA) | IC50 (MXD3 mRNA) | Ranking (tolerability) [1] | IC50 (Reh cells) | Average number of live cells × 10^3 (Reh cells; 4 hours) | Average number of live cells × 10^3 (Reh cells; 8 hours) | Average number of live cells × 10^3 (Reh cells; 24 hours) | Average number of live cells × 10^3 (Reh cells; 48 hours) | Average number of live cells × 10^3 (Reh cells; 72 hours)
632407 (antisense k[5mC]*kA*kT*d[5mC]*d[5mC]*dA*d[5mC]*d[5mC]*d[5mC]*dA*d[5mC]*dG*d[5mC]*k[5mC]*kG*kG) [compound 632407] | 60.5 % control | 1.64 µM | 12 |  |  |  |  |  | 
632417 (antisense kG*kG*k[5mC]*d[5mC]*d[5mC]*dT*dG*dG*dA*dG*d[5mC]*dG*dA*kA*k[5mC]*k[5mC]) [compound 632417] | 38.3 % control | 7.05 µM | 1 |  |  |  |  |  | 
632424 (antisense kA*kG*k[5mC]*d[5mC]*dG*d[5mC]*dA*dG*d[5mC]*d[5mC]*d[5mC]*dA*d[5mC]*k[5mC]*k[5mC]*kT) [compound 632424] | 94.4 % control | 1.64 µM | 9 |  |  |  |  |  | 
632460 (antisense kA*kT*kA*dA*d[5mC]*d[5mC]*dA*dT*dG*d[5mC]*dT*d[5mC]*dG*kG*k[5mC]*k[5mC]) [compound 632460] | 59.0 % control | 2.95 µM | 13 |  |  |  |  |  | 
632461 (antisense k[5mC]*kA*k[5mC]*dA*dG*dG*dG*dA*d[5mC]*dG*d[5mC]*dA*dT*kA*kA*k[5mC]) [compound 632461] | 59.8 % control | 8.99 µM | 2 |  |  |  |  |  | 
632527 (antisense k[5mC]*kA*kT*d[5mC]*dA*dT*dA*dG*d[5mC]*d[5mC]*dA*dG*dG*k[5mC]*kG*k[5mC]) [compound 632527] | 76.5 % control | 9.23 µM | 8 |  |  |  |  |  | 
632528 (antisense kA*kG*kG*dA*dA*d[5mC]*dA*dT*d[5mC]*dA*dT*dA*dG*k[5mC]*k[5mC]*kA) [compound 632528] | 63.6 % control | 5.89 µM | 5 |  |  |  |  |  | 
632634 (antisense kG*kG*kA*dT*dT*dA*d[5mC]*dT*dG*dT*d[5mC]*d[5mC]*dT*kA*kG*kG) [compound 632634] | 47.4 % control | 5.71 µM | 10 |  |  |  |  |  | 
632640 (antisense k[5mC]*kA*kA*dG*d[5mC]*dA*dA*d[5mC]*dA*dA*dG*dT*dG*kG*kG*k[5mC]) [compound 632640] | 65.6 % control | 0.38 µM | 3 |  |  |  |  |  | 
632669 (antisense kT*kA*kA*dA*d[5mC]*dA*d[5mC]*dT*dT*dG*dT*d[5mC]*dA*kG*kA*kG) [compound 632669] | 34.0 % control | 9.05 µM | 4 |  |  |  |  |  | 
632672 (antisense kA*kT*k[5mC]*d[5mC]*dA*dT*d[5mC]*d[5mC]*dG*dA*dG*dA*dA*k[5mC]*k[5mC]*kA) [compound 632672] | 50.3 % control | 4.76 µM | 6 |  |  |  |  |  | 
632673 (antisense k[5mC]*kA*k[5mC]*dA*dT*d[5mC]*dA*dT*d[5mC]*d[5mC]*dA*dT*d[5mC]*k[5mC]*kG*kA) [compound 632673] | 27.5 % control | 5.58 µM | 7 |  |  |  |  |  | 
632682 (antisense kG*kT*k[5mC]*dA*dT*dT*d[5mC]*dA*dA*d[5mC]*dA*dA*dG*kA*kA*kG) [compound 632682] | 28.4 % control | 5.61 µM | 11 |  |  |  |  |  | 
COc1cccc2c1C(=O)c1c(O)c3c(c(O)c1C2=O)C[C@@](O)(C(=O)CO)C[C@@H]3O[C@H]1C[C@H](N)[C@H](O)[C@H](C)O1 [Doxo, Doxorubicin] |  |  |  | 2.56 ng/mL (≈ 4.71 nM) | 22.3 × 10^3 | 22.9 × 10^3 | 30 × 10^3 | 37 × 10^3 | 41.8 × 10^3
CC[C@]1(O)C[C@H]2CN(CCc3c([nH]c4ccccc34)[C@@](C(=O)OC)(c3cc4c(cc3OC)N(C=O)[C@H]3[C@@](O)(C(=O)OC)[C@H](OC(C)=O)[C@]5(CC)C=CCN6CC[C@]43[C@@H]65)C2)C1 [Vcr, Vincristine] |  |  |  | 1.18 ng/mL (≈ 1.43 nM) | 20.2 × 10^3 | 19.6 × 10^3 | 27.8 × 10^3 | 33.1 × 10^3 | 34.8 × 10^3
